Source: PubChem BioAssay AID743059 (The Scripps Research Institute Molecular Screening Center, 2013)
The source made the active and inactive calls.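 How the source made its calls: active means EC50 at or below 10 µM; inactive means EC50 above 10 µM.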

Molecular target: Nuclear hormone receptor DAF-12 (Heterodera glycines)
Experiment: hgDAF-12 reporter activation EC50 – cell-based, luminescence, HEK293, dose response (AID 743059);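 further: agonist potency for compounds that raise hgDAF-12 reporter luminescence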
Settings: HEK293 hgDAF-12 reporter, luciferase luminescence

SMILES	EC50
Cc1scc(C(=O)N/N=C/c2ccsc2)c1C	> 67.6 µM (inactive)
Cc1ccc(-n2ncc3ccccc3c2=O)cc1Cl	> 67.6 µM (inactive)
CN(C)c1ccc(Nc2nc(-c3cccnc3)cs2)cc1	> 67.5 µM (inactive)
Cc1ccc(-c2nnc(NC3CCCC3)s2)cc1	> 67.6 µM (inactive)
Clc1ccc(OCCSc2ncccn2)c(Br)c1	> 67.5 µM (inactive)
Cc1ccc(/C=N/NC(=O)c2ccoc2C)s1	> 67.6 µM (inactive)
CCCCSc1ncnc2c1ncn2C1CCCCO1 (configuration not stated)	> 67.4 µM (inactive)
Cc1csc(NC(=O)c2ccc3ccccc3n2)n1	> 67.6 µM (inactive)
Cc1cc(-c2nc3cccnc3s2)ccc1NS(=O)(=O)c1cccs1	> 67.5 µM (inactive)
Brc1ccc(-c2noc(-c3ccccn3)n2)o1	> 67.5 µM (inactive)
O=c1c2cc(-c3ccccc3)sc2nc2n1CCC2	> 67.5 µM (inactive)
O=c1c2ccccc2nnn1CSc1ccccc1F	> 67.5 µM (inactive)
OC(c1ccccc1)c1nc(-c2cnc3ccccc3c2)cs1 (configuration not stated)	> 67.6 µM (inactive)
CN(C)c1cccc(-c2cnc(N3CCC(C(N)=O)CC3)s2)c1	> 67.5 µM (inactive)
COc1ccccc1-c1noc(-c2cccs2)n1	> 67.5 µM (inactive)
COc1cccc(/C=C/c2ccc3cccc(O)c3n2)c1	> 67.5 µM (inactive)
O=C(Nc1ccn(Cc2ccccc2)n1)c1n[nH]c([N+](=O)[O-])c1Cl	> 67.5 µM (inactive)
COc1ccc2oc3cc(NCCN(C)C)ccc3c(=O)c2c1	inactive
Oc1ccc(N=Nc2ccc3ccccc3c2)cc1	> 67.5 µM (inactive)
OCc1ccc(N=Nc2ccccc2)cc1	> 67.5 µM (inactive)
Nc1nn(-c2cccc(F)n2)cc1-c1ccccc1	> 67.5 µM (inactive)
c1ccc(N=Nc2ccc(C3=NCCO3)cc2)cc1	> 67.6 µM (inactive)
CC(=Nc1cccc(C)c1)c1sc2ccccc2c1O	> 67.6 µM (inactive)

SMILES	EC50
c1ccc(CSc2ccc(-c3ccccn3)nn2)nc1	> 67.5 µM (inactive)
Clc1ccc(Nc2nc(-c3cccs3)cs2)nc1	> 67.5 µM (inactive)
O=C(N/N=C/c1cccs1)c1n[nH]c2c1CCC2	> 67.5 µM (inactive)
Cc1ccc(N/C=C(/C#N)c2ccsc2)cc1C	> 67.5 µM (inactive)
N#Cc1c(Br)n(C2OC(CO)C(O)C2O)c2ncnc(N)c12 (configuration not stated)	> 67.5 µM (inactive)
Cc1cc(O)ccc1Nc1cc(-c2cccc(N(C)C)c2)ncn1	> 67.5 µM (inactive)
O=C(Nc1ncccc1O)c1ccc(C(=O)c2ccccc2)cc1	4.55 µM
CC/C(=N\NC(=O)c1ccoc1C)c1ccc(C)o1	> 67.5 µM (inactive)
Cc1nnc(SCC(=O)Nc2nsc(-c3ccc(C(C)(C)C)cc3)n2)s1	> 67.5 µM (inactive)
Cc1nc2nc(-c3cccs3)[nH]c2cc1Br	> 67.5 µM (inactive)
COc1cccc(-c2nc(-c3ccc(Br)o3)no2)c1	> 67.5 µM (inactive)
Cc1ccc(-c2cn3cccnc3n2)cc1	> 67.6 µM (inactive)
Cc1ccc(Nc2ncccc2C(N)=O)cc1	> 67.4 µM (inactive)
COc1ccc(Oc2cnn(-c3ccccc3)c(=O)c2Br)cc1	> 67.5 µM (inactive)
O=c1[nH]c(=O)n(C2CC(O)C(CO)O2)cc1Br (configuration not stated)	> 67.6 µM (inactive)
O=C(Nc1ccccc1O)c1ccc(NS(=O)(=O)c2cccc3cccnc23)cc1	3.3 µM
NC(=Nc1ccccc1)NC(=O)c1nc(Cl)c(N)nc1N	> 67.5 µM (inactive)
O=[N+]([O-])c1cccnc1NCCNc1ncc(C(F)(F)F)cc1Cl	> 67.5 µM (inactive)
COc1cccc(-c2noc(-c3cccs3)n2)c1	> 67.6 µM (inactive)
Cc1cc(-c2ccncc2)n2ncc(-c3ccccc3)c2n1	> 67.6 µM (inactive)
Cc1cccc(Nc2n[nH]c(C)c2[N+](=O)[O-])c1	> 67.5 µM (inactive)
CCOC(=O)c1cnc(SCc2ccccc2)nc1N	> 67.5 µM (inactive)
O=C1/C(=C\c2cccs2)Sc2ccc3ccccc3c21	> 67.5 µM (inactive)

SMILES	EC50
CC(C)C(N)c1csc(Nc2nncc3ccccc23)n1 (configuration not stated)	> 67.1 µM (inactive)
Cc1cc(C(=O)CSc2ncccn2)c(C)n1Cc1ccco1	> 67.5 µM (inactive)
Cc1cnc(NC(=O)COc2ccc3c(c2)CCC3)s1	> 67.6 µM (inactive)
Cc1ccc(Nc2ncccc2C(N)=O)cc1[N+](=O)[O-]	> 67.6 µM (inactive)
CN(C)CCNc1ncnc2c1ncn2[C@H]1CN(Cc2cccnc2)C[C@@H](CO)O1	> 67.5 µM (inactive)
Cc1nc2sc(-c3ccccc3)nn2c(=O)c1Br	> 67.5 µM (inactive)
Cc1ccc2oc(-c3cccc(N)c3)nc2c1	> 67.6 µM (inactive)
CCc1ccc2oc(-c3cccc(N)c3)nc2c1	> 67.6 µM (inactive)
Cn1c(NCc2c[nH]c3ccccc23)nc2ccccc21	> 67.5 µM (inactive)
COc1ccccc1/C=N\N=C(\N)c1ccccn1	> 67.6 µM (inactive)
COCCNC(=O)/C(C#N)=C/c1cc(C)n(C2CCCCC2)c1C	> 67.5 µM (inactive)
Cc1cccc(/C(N)=N/OC(=O)c2cccs2)c1	> 67.5 µM (inactive)
Cc1cccc(N=Nc2cnc(N)s2)c1	> 67.6 µM (inactive)
Cc1cc(OCc2cc(C(=O)NCc3cc(C(C)C)no3)no2)cc(C)c1Cl	> 67.5 µM (inactive)
Cc1cccc(NC(=O)c2ccc3ccccc3n2)c1C	> 67.5 µM (inactive)
c1ccc(Nc2nc(-c3cccnc3)cs2)nc1	> 67.6 µM (inactive)
CN(C)/C=N/C(=S)Nc1ccc(Cl)cc1	> 67.5 µM (inactive)
Cc1cc(C(=O)CSc2cccc[n+]2[O-])c(C)n1-c1ccccc1	> 67.5 µM (inactive)
Cc1ccnc(NC(=O)C2CCN(S(=O)(=O)c3c(C)c(C)cc(C)c3C)CC2)c1	> 67.6 µM (inactive)
Cc1cc2nc(-c3cccnc3SCC(=O)NCc3ccco3)[nH]c2cc1C	> 67.6 µM (inactive)
CC(C)C[C@H](NC(=O)OCC1c2ccccc2-c2ccccc21)C(=O)O	> 67.5 µM (inactive)
Clc1ccc(CSc2nc3ccncc3[nH]2)cc1	> 67.5 µM (inactive)
C/C(=N\NC(=O)OC(C)(C)C)c1ccc[nH]1	> 67.6 µM (inactive)

SMILES	EC50
O=C(O)c1cc(-c2cccs2)[nH]n1	> 67.6 µM (inactive)
COc1cccc(-c2nc3ccccc3s2)c1	> 67.5 µM (inactive)
Cc1ccc(/C=N/NC(=O)c2ccccn2)s1	> 67.6 µM (inactive)
O=c1c2ccccc2nnn1CCc1ccccc1	> 67.4 µM (inactive)
COC1=C/C(=C/c2c(O)c(C#N)c3ccccn23)C=CC1=O	> 67.5 µM (inactive)
CCN(CC)S(=O)(=O)c1cc(C(=O)OCC(=O)Nc2ccc(-c3nc4ccc(C)cc4s3)cc2)ccc1F	> 67.5 µM (inactive)
CCc1cc(C(=O)Nc2ncccc2O)sc1C	> 67.5 µM (inactive)
Cc1ccsc1/C=N/NC(=O)c1sccc1C	> 67.5 µM (inactive)
O=C(Nc1ccccn1)c1csc2c1CCCC2	> 67.5 µM (inactive)
CN(C)c1ccc(N=Nc2nccs2)cc1	> 67.4 µM (inactive)
Cc1cc(C(=O)NC2CCCCC2)c(C)n1-c1ccc(F)cc1	> 67.5 µM (inactive)
Fc1ccccc1CSc1ncnc2c1ncn2C1CCCCO1 (configuration not stated)	> 67.6 µM (inactive)
Cc1cc(C)n2c(NC3CCCC3)c(-c3cc4ccccc4o3)nc2n1	> 67.5 µM (inactive)
CCCS(=O)(=O)NCc1cn2c(C)csc2n1	> 67.5 µM (inactive)
O=C(NC1CCC1)c1ccc(C#CC2CC2)cn1	> 67.5 µM (inactive)
CCOc1ccc2nc(NC(=O)Nc3cccs3)sc2c1	> 67.5 µM (inactive)
c1ccc(CCSc2nccn2-c2ccccc2)cc1	> 67.6 µM (inactive)
CN(C)c1ccc(C(C#N)c2ccccc2)nn1 (configuration not stated)	> 67.5 µM (inactive)
CCSCC(C)(C)n1[nH]c2ccccc2c1=O	> 67.6 µM (inactive)
COC(=O)C1C(=O)c2c([nH]c(C(=O)OC3CCCCC3)c2C)CC1C (configuration not stated)	> 67.5 µM (inactive)
O=C(NNCc1ccccc1)c1ccccn1	> 67.6 µM (inactive)
Cc1nc(N)sc1N=Nc1ccc(Br)cc1	> 67.5 µM (inactive)
Cc1ccc(SCCSc2ncccn2)cc1	> 67.5 µM (inactive)

SMILES	EC50
ON=C(CCc1ccccc1)c1ccccc1	> 67.5 µM (inactive)
Clc1ccccc1Nc1nc2ccccc2o1	> 67.6 µM (inactive)
Cc1ccc(NC(=S)NC(=O)C2CCCC2)c(Br)c1	> 67.5 µM (inactive)
N=C1/C(=C/c2ccc(OCc3ccccc3F)cc2)C(=O)N=C2SC(CC(=O)N3CCOCC3)=NN12	> 67.5 µM (inactive)
Cc1ccc(S(=O)(=O)/N=C(/NC(=S)Nc2ccccc2)c2ccccc2)cc1	> 67.5 µM (inactive)
Cc1cc2ncc(-c3ccccc3)nc2cc1C	> 67.5 µM (inactive)
O=c1c2ccccc2cnn1-c1ccc2ccccc2c1	> 67.5 µM (inactive)
CC(C)Oc1cc(O)c2c(=O)c(-c3ccc(O)cc3)coc2c1	> 67.6 µM (inactive)
COc1ccc(/C=C2\SC(=O)N(CCNC(=O)C3CC4C=CC3C4)C2=O)cc1 (configuration not stated)	> 67.5 µM (inactive)
O=[N+]([O-])c1ccc2c(c1)Nc1nc3ccccc3nc1N2	> 67.5 µM (inactive)
Cc1ccc(N=Nc2ccc(O)cc2)c(Br)c1	> 67.5 µM (inactive)
C/C(=N/OCc1ccc(Br)cc1)c1ccccn1	> 67.6 µM (inactive)
Cc1cc2nn(-c3ccc(F)cc3)nc2cc1N	> 67.5 µM (inactive)
Nc1c2c(nc3sc4c(c13)CCCC4)CCCCC2	> 67.6 µM (inactive)
O=C(Nc1ccc(Cl)cn1)c1cc2ccccc2o1	> 67.5 µM (inactive)
CSc1ccc(/C=N/Nc2ccc(Cl)c(C(=O)O)c2)cc1	> 67.5 µM (inactive)
Oc1[nH]c2ccccc2c1C=Nc1ccccc1	> 67.5 µM (inactive)
Cn1c(SCc2ccccc2F)nc2cccnc21	> 67.5 µM (inactive)
COCCNc1nc(-c2cc3ccccc3o2)cs1	> 67.5 µM (inactive)
CCCSc1nsc(NC(=O)CC)n1	> 67.5 µM (inactive)
